Measurements as given in US20050287169A1, “Methods of use of genes of pyridoxal 5'-phosphate biosynthesis in Bacillus subtilis: avirulent strains for vaccines, and methods for identification of antibacterial agents” (priority 2003, published 2005).
Each block holds one molecule with its values, some of them ahead of it.

Columns and labels:
[1] = test system: B. subtilis strain BB2253 (ΔpdxS); test: Growth of B. subtilis pdxS (yaaD) null mutant BB2253 with supplements; format: cell-based, Bacillus subtilis
Procedure: (§1) Bacterial strains, plasmids and culture media. B. subtilis strains were grown at 37° C. in TSS minimal medium with 0.5% glucose as the carbon source and 0.2% glutamate or NH4Cl as nitrogen source, in LB broth [Miller, 1972], or in DS nutrient broth medium [Fouet, 1990]. The same media with addition of agar were used for growth of bacteria on plates. LB broth or LB agar was used for growth of Escherichia coli strains. The following antibiotic concentrations were used as appropriate: chloramphenicol, 2.5 μg/ml; neomycin, 2.5-5 μg/ml; phleomycin, 0.25 μg/ml; spectinomycin, 50 μg/ml; or a combination of erythromycin, 0.5 μg/ml, and lincomycin, 12.5 μg/ml, for B. subtilis strains; ampicillin, 50-100 μg/ml; kanamycin, 25 μg/ml; spectinomycin, 50 μg/ml; or chloramphenicol, 10 μg/ml, for E. coli strains.
Construction of yaaD and yaaE null mutants. A deletion mutation within gene yaaD was created by cutting out the 606-bp fragment starting at the AatII site of pBB1181 (FIG. 2) and religating the remaining fragment after filling in its ends (the deletion endpoint, as determined by sequencing, was determined to be beyond the HindIII site, designed for this construct). In the resulting plasmid, pBB1185 (FIG. 2), the deletion was found not to alter the reading frame ofyaaD. pBB1218, a truncated version of pBB1185 (FIG. 2), was introduced by a single-crossover, homologous recombination event into the chromosome of strain SMY, selecting transformants for neomycin resistance. […] After growth of cells of the […] Pdx^− strain in the absence of neomycin, a Neos Pdx^− derivative was isolated. In this strain it was observed that the integrated pBB1218 had been excised from the chromosome and lost. Replacement of the wild-type yaaD gene by the ΔyaaD allele in strain BB2253 and excision of pBB1218 was confirmed by sizing PCR fragments generated from the yaaD locus and by probing for the loss of vector sequences.
Poor ability to utilize PN has been observed for uncharacterized B. subtilis mutants that appeared to require B6 vitamers for growth [Pflug, 1978]. B. subtilis cells apparently lack the pdxH-like gene and the corresponding pyridoxine 5′-phosphate oxidase activity [Pflug, 1983] required for conversion of pyridoxine to PLP.

[2] = test system: B. subtilis pdxT mutant (strains BB2256, BB2290); test: Growth of B. subtilis pdxT (yaaE) null mutant with supplements; format: cell-based, Bacillus subtilis
Procedure: as §1
A deletion-insertion mutation within the yaaE gene was constructed by replacing a 135-bp SphI-EcoRI fragment of pBB1213 (FIG. 2) with a 1.4-kb SphI-EcoRI ble cassette determining resistance to phleomycin, excised from pJPM136 [Belitsky, 1998]. The orientation of the ble gene in the resulting plasmid pBB1217 (ΔyaaE::ble; FIG. 2) coincided with that of the yaaE gene. Plasmid pBB1217 was introduced into B. subtilis SMY, and Phlr NeoS transformants arising from double crossover homologous recombination events were selected. Replacement of the chromosomal yaaE gene by the ΔyaaE::ble allele in strain BB2256 was confirmed by comparing sizes of PCR fragments from each of the wild-type and the mutant yaaE chromosomal loci.

[3] = test system: B. subtilis strain BB2267 (ΔpdxS ΔpdxZ::spc); test: Viability and growth of double pdxS pdxZ null mutant BB2267 with PLP precursors; format: cell-based, Bacillus subtilis; conditions: for Viability of double mutant pdxS pdxZ (BB2267): DS nutrient broth or glucose-ammonium TSS medium
Text: Double pdxS pdxZ and pdxT pdxZ null mutants, defective both in de novo and salvage pathways of PLP synthesis, were obtained by introducing the pdxZ mutation into the chromosome of the pdxS or pdxT mutant cells by transformation.
Viability of cells of strain BB2295 carrying both pdxS and pdxZ mutations was also obtained in the absence of exogenous pyridoxal in the presence of xylose, by conditionally restoring the de novo pathway of PLP synthesis with a xylose-inducible form of the pdxS gene at an ectopic location, i.e., located elsewhere on the chromosome. These and similarly constructed conditional lethal strains can be used for vaccine development, to overcome possible lethality to the bacteria during culture of cells carrying double pdxS and pdxZ or double pdxT and pdxZ mutations.

[4] = test system: L. monocytogenes strain BL1 (ΔpdxST::spc); test: Growth of Listeria monocytogenes ΔpdxST::spc mutant BL1 with B6 vitamers; format: cell-based
Procedure: The resulting plasmid, pBB1212, was introduced into E. coli strain DW1030 containing conjugative plasmid pRK231.7, a broad host range plasmid of the IncP incompatibility group. pBB1212 was transferred from strain DW1030 (pBB1212) into L. monocytogenes cells by conjugation [Trieu-Cuot, 1987] at the temperature (30°) permissive for replication of pBB1212. The ΔpdxST::spc mutants, formed due to allelic exchange resulting from pBB1212 plasmid integration into the chromosome at the non-permissive temperature (41°) and excision at the permissive temperature, were obtained by screening colonies that lost the plasmid marker (chloramphenicol-resistance) and had retained resistance to spectinomycin. Replacement of the chromosomal pdxST locus by the ΔpdxST::spc allele in strain BL1 was confirmed by comparing the sizes of PCR fragments obtained by use of the wild-type and mutant pdxST chromosomal loci as templates.
These traits of the L. monocytogenes mutant are similar to those observed herein with the corresponding B. subtilis mutant.

[5] = test system: pdxS-lacZ fusion; test: Expression of pdxS-lacZ fusion (β-galactosidase activity); format: cell-based, Bacillus subtilis; conditions: for β-Galactosidase activity: NH4Cl 10 mM, PL 100 μM, glucose-minimal medium
Text: Construction of transcriptional pdxS-lacZ (yaaD-lacZ) and pdxT-lacZ (yaaE-lacZ) fusions. The 1.35-kb BamHI-EcoRI fragment containing the entire intragenic region between dacA and pdxS, the entire pdxS gene, and the 5′-end of the pdxT gene (FIG. 2), was cut out from the PCR product generated using primers oBB120 and oBB121 and was cloned between the corresponding sites of pHK23 to construct pBB1254 (pdxST-lacZ; FIG. 2). Plasmid pHK23 containing an erythromycin resistance gene was derived from pLG103 [Belitsky et al., 2002, the entire contents of which are hereby incorporated by reference herein]. To construct plasmid pBB1259 with apdxS-lacZ fusion (FIG. 2), a 0.50-kb HindIII-EcoRI fragment containing the 3′-end of the pdxS gene and the 5′-end of thepdxT gene, was cut out of pBB1254, and the plasmid was blunt-ended and religated. To construct plasmid pBB1262 with a pdxT-lacZ fusion (FIG. 2), a 0.43-kb BamHI-BseRI fragment, containing the pdxS promoter and the 5′-part of the pdxS gene, was cut out of pBB1254, and the plasmid was blunt-ended and religated. Strains BB2277, 2279, and 2285 carrying thepdx-lacZ transcriptional fusions integrated at the amyE locus were isolated after transforming strain SMY with pBB1254, 1259, and 1262, respectively, selecting for resistance to erythromycin and screening for loss both of α-amylase production (Amy) and vector sequences as indications of a double crossover, homologous recombination event. The Amy phenotype was assayed using colonies grown overnight on Tryptose Blood Agar Base (Difco)-0.2% starch plates [Fouet, 1990].
Activity of β-galactosidase was determined as described previously [Belitsky, 1995]. Specific activities are expressed in Miller units (1000×OD420/min·ml·OD600) [Miller, 1972].
ApdxS-lacZ transcriptional fusion (plasmid pBB1259; FIG. 2) was constructed as described in Materials and Methods herein, and was integrated at the ectopic amyE locus of the B. subtilis chromosome (strain BB2279).
No effect of addition of excess pyridoxal (up to 1 mM) was observed on expression or on growth rate. Further, a moderate activation of expression (about 3-4-fold) was observed as a result of B6 limitation, for example, by growth of apdxT mutant in LB broth. This effect was not observed or was much less pronounced for the pdxT mutant using LB broth supplemented with excess PL or NH4Cl (FIG. 6), or in a wild type strain. Further, a 2-3-fold decrease in β-galactosidase activity was observed inpdxT mutant cells grown in TSS-glucose mediume with limiting concentrations of ammonium salts, and this decrease in pdxS-lacZ expression was prevented by the presence of PL (Table 5).

[6] = test system: B. subtilis strain BB2279 (wild-type); test: Growth rate of wild-type B. subtilis strain BB2279 carrying pdxS-lacZ; format: cell-based, Bacillus subtilis
Procedure: as §1
No effect of addition of excess pyridoxal (up to 1 mM) was observed on expression or on growth rate. Further, a moderate activation of expression (about 3-4-fold) was observed as a result of B6 limitation, for example, by growth of apdxT mutant in LB broth. This effect was not observed or was much less pronounced for the pdxT mutant using LB broth supplemented with excess PL or NH4Cl (FIG. 6), or in a wild type strain. […]

[7] = test system: Bacillus circulans pdxT mutant; conditions: addition of pyridoxine; cited from earlier work
[8] = test system: G. stearothermophilus PdxT-His6 protein
[9] = biological target: T1, wild-type B. subtilis PdxS protein (Bacillus subtilis, UniProt P37527 2-294); test: co-purification on a Ni2+-affinity column from E. coli co-expressing both proteins (0.5 M NaCl, 0.4 M imidazole), SDS-PAGE
T1 construct: Co-expressed with PdxT-His6 in E. coli; also called YaaD; unmodified PdxS
T1 sequence (looked up): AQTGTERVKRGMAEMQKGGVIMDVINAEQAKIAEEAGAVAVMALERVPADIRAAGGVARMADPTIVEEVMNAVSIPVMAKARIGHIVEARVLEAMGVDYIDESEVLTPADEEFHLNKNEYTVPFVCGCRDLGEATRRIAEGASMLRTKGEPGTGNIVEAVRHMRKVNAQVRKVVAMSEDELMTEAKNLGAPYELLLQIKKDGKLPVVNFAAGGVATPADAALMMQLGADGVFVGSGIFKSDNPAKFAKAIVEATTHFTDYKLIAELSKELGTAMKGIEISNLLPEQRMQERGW
Procedure: pBAD derivatives were introduced into E. coli LMG194 (ara⁻) [Guzman, 1995] cells by transformation. The PdxS and/or PdxT proteins were induced in L-broth cultures (A₆₀₀=0.25−0.4) by addition of 0.2% L-arabinose and incubation for four hours. Cells were pelleted, were washed in 50 mM tris-Cl (pH 8.0)-5% glycerol and were disrupted by sonication in modified Novagen binding buffer (20 mM tris-Cl (pH 7.9)-500 mM NaCl-5 mM imidazole-5% glycerol) plus 1 mM phenylmethylsulfonyl fluoride and 0.1% Nonidet P-40. The sonicate was clarified by low speed centrifugation, and the supernatant was purified using a 2 ml Ni²⁺-column (Novagen) as described by the manufacturer. Buffers containing increasing concentrations of imidazole, from 30 mM to 1 M, were initially used for elution, and 485 mM and 385 mM imidazole were found suitable for elution of PdxS and PdxT proteins, respectively.
E. coli strains overproducing each of the wild-type version of the B. subtilis PdxS protein and the His₆-tagged version of PdxT were constructed, and were used for purification of the PdxT-His₆ protein by Ni²⁺-affinity chromatography.

[10] = isoleucine 500 μg/ml, with or without pyridoxine
[11] = strain BB2279, up to 1 mM pyridoxal

Molecule: Cc1ncc(COP(=O)(O)O)c(C=O)c1O [PLP, Pyridoxal 5′-phosphate]
- Growth of strain BB2253 in the presence of PLP [1]: Poor growth

Molecule: Cc1ncc(CO)c(CN)c1O [Pyridoxamine]
- Effectiveness for growth of the mutant compared with pyridoxal ([1]; strain BB2253): several-fold less effective

Molecule: CC[C@H](C)[C@H](N)C(=O)O [isoleucine]
- Effect on growth of the pdxS mutant [1, 10]: No effect
- Effect on growth of the pdxT mutant [2, 10]: No effect

Molecule: Cc1ncc(CO)c(C=O)c1O [pyridoxal]
- Growth of B. subtilis ΔpdxS ([1]; FIG. 3A, 0.01 μM pyridoxal): no growth observed
- Minimal concentration of pyridoxal supporting growth of B. subtilis ΔpdxS ([1]; FIG. 3A, growth rate a function of PL concentration up to 10 μM): 0.03 µM
- Growth defects of strain BB2253 in rich media on addition of pyridoxal ([1]; LB-broth, brain heart infusion medium or DS medium): relieved
- Restoration of growth of strain BB2253 ([1]; minimal media, 1 μM pyridoxal): fully restored
- Growth rate ([2]; BB2290 pdxT, NH4Cl 10 mM, PL 100 μM, glucose-minimal medium): 60 min
- Growth rate of strain BB2256 in the presence of PL ([2]; minimal and rich media): restored to that of the wild type cell
- Growth and viability of double mutant pdxS pdxZ ([3]; 1 mM pyridoxal): Growth and viability
- Pyridoxal concentration needed by the double mutant relative to that required for full growth of the pdxS mutant ([3]; 1 mM versus 1 μM): 1000 fold
- Viability of double mutant pdxS pdxZ (BB2267) ([3]; 1 μM pyridoxal): non-viable
- Restoration of growth of strain BL1 ([4]; 1 μM pyridoxal): fully restored
- β-Galactosidase activity ([5]; BB2279 wild-type): 190.4 Miller units
- β-Galactosidase activity ([5]; BB2290 pdxT): 142.4 Miller units
- Effect of PL on the 2-3-fold decrease in pdxS-lacZ expression in pdxT mutant cells ([5]; TSS-glucose medium, limiting ammonium salts): prevented
- Effect of excess pyridoxal on pdxS-lacZ expression [5, 11]: No effect
- Growth rate ([6]; BB2279 wild-type, NH4Cl 10 mM, PL 100 μM, glucose-minimal medium): 60 min
- Effect of excess pyridoxal on growth rate [6, 11]: No effect

Molecule: Cc1ncc(CO)c(CO)c1O [pyridoxine]
- Restoration of growth of strain BB2253 ([1]; 200 μM pyridoxine): only partially restored
- Viability of double mutant pdxS pdxZ (BB2267) ([3]; 200 μM pyridoxine): non-viable
- Restoration of growth of strain BL1 ([4]; 100 μM pyridoxine): not at all
- Remediation of growth defect of B. circulans pdxT mutant [7]: not remediated

Molecule: G. stearothermophilus PdxS containing a His6-tag at its C-terminus
- glutaminase activity [8]: It was found that the G. stearothermophilus PdxST complex has glutaminase activity

- binding result [9]: binds
B1: His6-tagged version of B. subtilis PdxT (enzyme, Bacillus subtilis)
chain: MLTIGVLGLQGAVREHIHAIEACGAAGLVVKRPEQLNEVDGLILPGGESTTMRRLIDTYQFMEPLREFAAQGKPMFGTCAGLIILAKEIAGSDNPHLGLLNVVVERNSFGRQVDSFEADLTIKGLDEPFTGVFIRAPHILEAGENVEVLSEHNGRIVAAKQGQFLGCSFHPELTEDHRVTQLFVEMVEEYKQKALVHHHHHH
notes: Overproduced in E. coli from pBB1252 (with PdxS) or pBB1256 (alone) and purified on a Ni2+ column; also called PdxT-His6; PdxT-H6
